Experimental findings from patent US20230107941A1, “HEPATITIS B CAPSID ASSEMBLY MODULATORS” (Venatorx Pharmaceuticals, Inc., priority 2019, published 2023) are described below.

In series [1] the test system is HBV. Description: In vitro antiviral assay: anti-HBV replication in HepAD38 cells (extracellular HBV DNA by QPCR). As to conditions: Hepatitis B virus, HePAD38, 168 h, 7 days incubation, extracellular HBV DNA by QPCR, read-out: Anti-HBV EC50. The format is cell-based, hepatitis B virus (genotype D, serotype ayw). Summed up:
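Read-out is extracellular HBV DNA (copies/mL, QPCR standard curve) after 7-day exposure of tet-free HepAD38 cells to 10-fold dilutions from 1 μM down to 10 pM. Values normalised to DMSO vehicle; EC50 from 4-parameter nonlinear regression, with entecavir validating each run.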

The nature of series [2]: In vitro cytotoxicity assay (MTT cell viability) in HepG2 cells. As to conditions: human. The format is cell-based, human. Summed up:
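CC50 was derived by 4-parameter fit of viability relative to vehicle controls, measured as MTT formazan absorbance at 492 nm after 3–4 h of reagent and DMSO solubilization. Before that, HepG2 cells seeded overnight at 20,000/well were incubated 7 days at 37°C with compound from 30 μM down to 1.0 nM in half-log steps.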

For orientation: EC50 means the concentration at which the effect is half-maximal. The term CC50 denotes the concentration at which the toxic effect on the cells reaches its halfway point. Low readings indicate harm at low concentration, high ones better tolerance by the cells. With `Cc1cc(NC(=O)c2c(C)c(C(=O)C(=O)NC3(CO)CCN(C(=O)c4ccnn4C)CC3)n(C)c2C)ccc1F` [Example 76, N-(4-fluoro-3-methylphenyl)-5-(2-((4-(hydroxymethyl)-1-(1-methyl-1H-pyrazole-5-carbonyl)piperidin-4-yl)amino)-2-oxoacetyl)-1,2,4-trimethyl-1H-pyrrole-3-carboxamide], the EC50 in series [1] is less than 50 nM. For the same molecule, in series [2], the CC50 at 7 days is greater than 30000 nM.

With `Cc1c(C(=O)Nc2cccc(Cl)n2)c(C)n(C)c1C(=O)C(=O)N[C@H](C)C(F)(F)F` [Example 77, (R)-N-(6-chloropyridin-2-yl)-1,2,4-trimethyl-5-(2-oxo-2-((1,1,1-trifluoropropan-2-yl)amino)acetyl)-1H-pyrrole-3-carboxamide], in series [1], the EC50 was in the range of 50 to 499 nM. In series [2], this molecule had a half-maximal cytotoxic concentration (CC50) at 7 days greater than 30000 nM.

In the case of `CC(=O)N1CC[C@H](NC(=O)C(=O)c2c(C)c(C(=O)Nc3ccc(F)c(C)c3)c(C)n2C)C[C@H]1C` [Example 78, 5-(2-(((2R,4S)-1-acetyl-2-methylpiperidin-4-yl)amino)-2-oxoacetyl)-N-(4-fluoro-3-methylphenyl)-1,2,4-trimethyl-1H-pyrrole-3-carboxamide], in series [1], the EC50 is less than 50 nM. In series [2], this molecule had a CC50 at 7 days greater than 30000 nM.

As for `Cc1c(C(=O)Nc2cc(Cl)cc(Cl)c2)c(C)n(C)c1C(=O)C(=O)N[C@H](C)C(F)(F)F` [Example 79, (R)-N-(3,5-dichlorophenyl)-1,2,4-trimethyl-5-(2-oxo-2-((1,1,1-trifluoropropan-2-yl)amino)acetyl)-1H-pyrrole-3-carboxamide], the EC50 in series [1] was less than 50 nM. The molecule further displayed a CC50 at 7 days in series [2] of 5000 to 30000 nM.

For the molecule `Cc1cc(NC(=O)c2c(C)c(C(=O)C(=O)NC34CC(C3)C4)n(C)c2C)ccc1F` [Example 80, 5-(2-(bicyclo[1.1.1]pentan-1-ylamino)-2-oxoacetyl)-N-(4-fluoro-3-methylphenyl)-1,2,4-trimethyl-1H-pyrrole-3-carboxamide], the EC50 in series [1] is less than 50 nM. The same molecule had a CC50 at 7 days in series [2] of 5000 to 30000 nM.

In the case of `Cc1cc(NC(=O)c2c(C)c(C(=O)C(=O)NC3(C)CNC(=O)C34CC4)n(C)c2C)ccc1F` (stereo not drawn) [Example 81, N-(4-fluoro-3-methylphenyl)-1,2,4-trimethyl-5-(2-((7-methyl-4-oxo-5-azaspiro[2.4]heptan-7-yl)amino)-2-oxoacetyl)-1H-pyrrole-3-carboxamide], in series [1], the EC50 was less than 50 nM. In series [2], this molecule had a CC50 at 7 days greater than 30000 nM.

Consider `Cc1cc(NC(=O)c2c(C)c(C(=O)C(=O)NC34CC(O)(C3)C4)n(C)c2C)ccc1F` [Example 82, N-(4-fluoro-3-methylphenyl)-5-(2-((3-hydroxybicyclo[1.1.1]pentan-1-yl)amino)-2-oxoacetyl)-1,2,4-trimethyl-1H-pyrrole-3-carboxamide], for which, in series [1], the EC50 was less than 50 nM. The CC50 at 7 days in series [2] was greater than 30000 nM.

`Cc1c(C(=O)Nc2ccc(F)c(C#N)c2)c(C)n(C)c1C(=O)C(=O)NC1(C)CC(O)C1` (stereo not drawn) [Example 83, N-(3-cyano-4-fluorophenyl)-5-(2-((3-hydroxy-1-methylcyclobutyl)amino)-2-oxoacetyl)-1,2,4-trimethyl-1H-pyrrole-3-carboxamide]: in series [1], the EC50 is less than 50 nM. This molecule also showed a CC50 at 7 days in series [2] greater than 30000 nM.

With `Cc1cc(NC(=O)c2c(C)c(C(=O)C(=O)NC3CCc4nnn(C)c4C3)n(C)c2C)ccc1F` (stereo not drawn) [Example 85, N-(4-fluoro-3-methylphenyl)-1,2,4-trimethyl-5-(2-((1-methyl-4,5,6,7-tetrahydro-1H-benzo[d][1,2,3]triazol-6-yl)amino)-2-oxoacetyl)-1H-pyrrole-3-carboxamide], the EC50 in series [1] is less than 50 nM. Moreover, the CC50 at 7 days in series [2] was greater than 30000 nM.

Turning to `CCc1c(C(=O)Nc2ccc(F)c(C)c2)c(C)n(C)c1C(=O)C(=O)N[C@H]1CC[C@@H](O)CC1` [Example 86, 4-ethyl-N-(4-fluoro-3-methylphenyl)-5-(2-(((1s,4s)-4-hydroxycyclohexyl)amino)-2-oxoacetyl)-1,2-dimethyl-1H-pyrrole-3-carboxamide], the EC50 in series [1] is less than 50 nM. This molecule also showed a CC50 at 7 days in series [2] greater than 30000 nM.

Consider `CCc1c(C(=O)Nc2ccc(F)c(C)c2)c(C)n(C)c1C(=O)C(=O)N[C@]1(C)C[C@H](O)C1` [Example 87, 4-ethyl-N-(4-fluoro-3-methylphenyl)-5-(2-(((1s,3s)-3-hydroxy-1-methylcyclobutyl)amino)-2-oxoacetyl)-1,2-dimethyl-1H-pyrrole-3-carboxamide], for which the EC50 in series [1] is less than 50 nM. Besides, the CC50 at 7 days in series [2] is greater than 30000 nM.

`CCc1c(C(=O)Nc2ccc(F)c(C)c2)c(C)n(C)c1C(=O)C(=O)NCC(C)(C)O` [Example 88, 4-ethyl-N-(4-fluoro-3-methylphenyl)-5-(2-((2-hydroxy-2-methylpropyl)amino)-2-oxoacetyl)-1,2-dimethyl-1H-pyrrole-3-carboxamide]: the EC50 in series [1] is 500 to 1000 nM. This molecule had a CC50 at 7 days in series [2] greater than 30000 nM.

With `CCc1c(C(=O)Nc2ccc(F)c(C)c2)c(C)n(C)c1C(=O)C(=O)N[C@H]1CC[C@@H](S(C)(=O)=O)CC1` [Example 89, 4-ethyl-N-(4-fluoro-3-methylphenyl)-1,2-dimethyl-5-(2-(((1s,4s)-4-(methylsulfonyl)cyclohexyl)amino)-2-oxoacetyl)-1H-pyrrole-3-carboxamide], in series [1], the EC50 was less than 50 nM. This molecule also came in with a CC50 at 7 days in series [2] greater than 30000 nM.

On to `CCc1c(C(=O)Nc2ccc(F)c(C)c2)c(C)n(C)c1C(=O)C(=O)N[C@H](C)C(F)(F)F` [Example 90, (R)-4-ethyl-N-(4-fluoro-3-methylphenyl)-1,2-dimethyl-5-(2-oxo-2-((1,1,1-trifluoropropan-2-yl)amino)acetyl)-1H-pyrrole-3-carboxamide], for which, in series [1], the EC50 is less than 50 nM. The molecule further returned a CC50 at 7 days in series [2] of 5000 to 30000 nM.

For the molecule `CCc1c(C(=O)Nc2ccc(F)c(C)c2)c(C)n(C)c1C(=O)C(=O)NC1CCN(c2cccnn2)CC1` [Example 91, 4-ethyl-N-(4-fluoro-3-methylphenyl)-1,2-dimethyl-5-(2-oxo-2-((1-(pyridazin-3-yl)piperidin-4-yl)amino)acetyl)-1H-pyrrole-3-carboxamide], the EC50 in series [1] fell in the range of 50 to 499 nM. In series [2], this molecule showed a CC50 at 7 days greater than 30000 nM.

Turning to `Cc1cc(NC(=O)c2c(C(C)C)c(C(=O)C(=O)N[C@H]3CC[C@@H](O)CC3)n(C)c2C)ccc1F` [Example 92, N-(4-fluoro-3-methylphenyl)-5-(2-(((1s,4s)-4-hydroxycyclohexyl)amino)-2-oxoacetyl)-4-isopropyl-1,2-dimethyl-1H-pyrrole-3-carboxamide], the EC50 in series [1] is 50 to 499 nM. In series [2], this molecule gave a cytotoxic concentration (CC50) at 7 days greater than 30000 nM.

For `Cc1cc(NC(=O)c2c(C(C)C)c(C(=O)C(=O)N[C@]3(C)C[C@H](O)C3)n(C)c2C)ccc1F` [Example 93, N-(4-fluoro-3-methylphenyl)-5-(2-(((1s,3s)-3-hydroxy-1-methylcyclobutyl)amino)-2-oxoacetyl)-4-isopropyl-1,2-dimethyl-1H-pyrrole-3-carboxamide], in series [1], the EC50 was greater than 1000 nM. Also, in series [2], the CC50 at 7 days was greater than 30000 nM.

As for `Cc1cc(NC(=O)c2c(C(C)C)c(C(=O)C(=O)NCC(C)(C)O)n(C)c2C)ccc1F` [Example 94, N-(4-fluoro-3-methylphenyl)-5-(2-((2-hydroxy-2-methylpropyl)amino)-2-oxoacetyl)-4-isopropyl-1,2-dimethyl-1H-pyrrole-3-carboxamide], the EC50 in series [1] lay within 500 to 1000 nM. Further, in series [2], the CC50 at 7 days was greater than 30000 nM.

Regarding `Cc1cc(NC(=O)c2c(C(C)C)c(C(=O)C(=O)N[C@H]3CC[C@@H](S(C)(=O)=O)CC3)n(C)c2C)ccc1F` [Example 95, N-(4-fluoro-3-methylphenyl)-4-isopropyl-1,2-dimethyl-5-(2-(((1s,4s)-4-(methylsulfonyl)cyclohexyl)amino)-2-oxoacetyl)-1H-pyrrole-3-carboxamide], the EC50 in series [1] was greater than 1000 nM. Further, the CC50 at 7 days in series [2] is greater than 30000 nM.

Consider `Cc1cc(NC(=O)c2c(C(C)C)c(C(=O)C(=O)N[C@H](C)C(F)(F)F)n(C)c2C)ccc1F` [Example 96, (R)-N-(4-fluoro-3-methylphenyl)-4-isopropyl-1,2-dimethyl-5-(2-oxo-2-((1,1,1-trifluoropropan-2-yl)amino)acetyl)-1H-pyrrole-3-carboxamide], for which the EC50 in series [1] is greater than 1000 nM. This molecule came in with a CC50 at 7 days in series [2] greater than 30000 nM.

With `Cc1cc(NC(=O)c2c(C3CC3)c(C(=O)C(=O)N[C@H]3CC[C@@H](O)CC3)n(C)c2C)ccc1F` [Example 97, 4-cyclopropyl-N-(4-fluoro-3-methylphenyl)-5-(2-(((1s,4s)-4-hydroxycyclohexyl)amino)-2-oxoacetyl)-1,2-dimethyl-1H-pyrrole-3-carboxamide], the EC50 in series [1] was in the range of 500 to 1000 nM. For the same molecule, the CC50 at 7 days in series [2] was greater than 30000 nM.

As for `Cc1cc(NC(=O)c2c(C3CC3)c(C(=O)C(=O)N[C@]3(C)C[C@H](O)C3)n(C)c2C)ccc1F` [Example 98, 4-cyclopropyl-N-(4-fluoro-3-methylphenyl)-5-(2-(((1s,3s)-3-hydroxy-1-methylcyclobutyl)amino)-2-oxoacetyl)-1,2-dimethyl-1H-pyrrole-3-carboxamide], the EC50 in series [1] was in the range of 50 to 499 nM. The CC50 at 7 days in series [2] is greater than 30000 nM.

`Cc1cc(NC(=O)c2c(C3CC3)c(C(=O)C(=O)NCC(C)(C)O)n(C)c2C)ccc1F` [Example 99, 4-cyclopropyl-N-(4-fluoro-3-methylphenyl)-5-(2-((2-hydroxy-2-methylpropyl)amino)-2-oxoacetyl)-1,2-dimethyl-1H-pyrrole-3-carboxamide]: the EC50 in series [1] is greater than 1000 nM. Moreover, the CC50 at 7 days in series [2] was greater than 30000 nM.

Consider `Cc1cc(NC(=O)c2c(C3CC3)c(C(=O)C(=O)N[C@H]3CC[C@@H](S(C)(=O)=O)CC3)n(C)c2C)ccc1F` [Example 100, 4-cyclopropyl-N-(4-fluoro-3-methylphenyl)-1,2-dimethyl-5-(2-(((1s,4s)-4-(methylsulfonyl)cyclohexyl)amino)-2-oxoacetyl)-1H-pyrrole-3-carboxamide], for which the EC50 in series [1] was less than 50 nM. This molecule also had a CC50 at 7 days in series [2] greater than 30000 nM.
